Laboratory results from patent US9057727B2, “Screening methods using G-protein coupled receptors and related compositions” (The General Hospital Corporation, priority 2007, dated 2015).
“Also recorded” adds a separate entry of the source. Square brackets hold non-standard residues; d marks the D form. Peptide text beside a SMILES is read from it. hArg = N=C(N)NCCCC[C@H](N)C(=O)O; Aib = CC(C)(N)C(=O)O

What was measured:
[1] = target: T1, ROS 17/2.8 cells (endogenous rat PTHR) (Rattus norvegicus, UniProt P25961); assay: Acute cAMP response in ROS 17/2.8 rat osteoblastic cells; assay type: cell-based; conditions: 10^−7 M, hPTH(1-28) 10^−6 M, basal 3.7±0.4
T1 construct: the rat osteoblastic cell line ROS17/2.8, which endogenously expresses the rat PTHR; endogenous in cells; host or cells: ROS 17/2.8 rat osteosarcoma cells (membranes or intact cells)
T1 sequence (P25961 27-591): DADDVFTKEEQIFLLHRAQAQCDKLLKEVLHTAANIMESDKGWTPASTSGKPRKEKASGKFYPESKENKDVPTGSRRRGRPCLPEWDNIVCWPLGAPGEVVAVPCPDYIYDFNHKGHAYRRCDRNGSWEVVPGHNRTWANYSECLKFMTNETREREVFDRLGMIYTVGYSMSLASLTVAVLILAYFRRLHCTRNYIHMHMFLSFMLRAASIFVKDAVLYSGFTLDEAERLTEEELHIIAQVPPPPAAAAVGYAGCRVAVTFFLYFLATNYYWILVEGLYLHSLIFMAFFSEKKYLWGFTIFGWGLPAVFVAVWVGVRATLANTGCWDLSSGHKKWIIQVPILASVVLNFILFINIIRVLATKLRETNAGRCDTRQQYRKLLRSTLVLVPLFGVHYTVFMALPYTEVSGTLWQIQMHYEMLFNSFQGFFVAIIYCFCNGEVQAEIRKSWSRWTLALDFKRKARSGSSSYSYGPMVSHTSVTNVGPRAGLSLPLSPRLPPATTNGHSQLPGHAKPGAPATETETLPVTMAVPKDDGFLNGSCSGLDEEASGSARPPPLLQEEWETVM

[2] = Plasma cAMP in mice after subcutaneous injection; assay type: in vivo
Experimental: FIGS. 9A-9D are graphs showing in vivo plasma cAMP levels in mice treated with PTH analogs. Wild-type mice were injected subcutaneously with vehicle (0.9% NaCl/0.05% Tween-20), or vehicle containing a PTH peptide at a dose-level of 10 to 1,000 nmol of peptide per kg of body weight, and at indicated times after injection, blood was withdrawn from the tail vein, and the amount of cAMP in the resulting plasma was quantified by radioimmuno assay. Each curve corresponds to a peptide at a defined concentration, as indicated in the graph keys. The plasma cAMP concentrations are plotted as picomole per μl plasma.
(§1) Wild-type mice were injected subcutaneously with vehicle (0.9% NaCl/0.05% Tween-20), or vehicle containing a PTH peptide so as to achieve a concentration ranging from 10 to 1000 nmol/kg of body weight. At the indicated times after injection, blood was withdrawn from the tail vein, and the amount of cAMP in the resulting plasma was quantified by radioimmuno assay (FIGS. 9A-9D).
as §1, with “at” for “so as to achieve”, “dose level of” for “concentration ranging from”, “At” for “At the”, “assay. Ionized calcium in serum was measured as above and phosphate was measured by a U.V. spectroscopic kit assay.” for “assay (FIGS. 9A-9D).”

[3] = Plasma phosphate and serum ionized calcium in mice after subcutaneous injection; assay type: in vivo; conditions: 50 nmol/kg s.c.
Experimental: FIGS. 10A and 10B are graphs showing in vivo plasma phosphate and serum ionized calcium levels in mice treated with PTH analogs. […] Serum ionized calcium concentrations were determined using a Chiron Diagnostics Model 634 Ca^++/pH analyzer. Data in A are means (±s.e.m.) of one experiment using six mice (n=6) for each injection condition; similar results were obtained in three other experiments. Data in B are means (±s.e.m.) of two experiments, each performed using triplicate mice (n=3) for each injection condition.
The mice were further analyzed for changes in plasma phosphate and serum ionized calcium concentrations. […] At the indicated times after injection, blood was withdrawn from the tail vein and the concentrations of plasma phosphate (FIG. 10A) and serum ionized calcium (FIG. 10B) were determined. Serum ionized calcium concentrations were determined using a Chiron Diagnostics Model 634 Ca^++/pH analyzer. Plasma phosphate concentrations were measured using a Phosphorous Liqui-UV assay kit (StanBio Laboratory, Boerne, Tex.).
as §1, with “at” for “so as to achieve”, “dose level of” for “concentration ranging from”, “At” for “At the”, “assay. […]” for “assay (FIGS. 9A-9D).”

[4] = test system: opossum kidney (OK) cell line; assay: Phosphate uptake inhibition in opossum kidney cells; assay type: cell-based; conditions: 10 minute exposure, 1×10^−7 M
Experimental: Data are means (±s.e.m.) of two experiments, each performed in duplicate.
Inhibition of phosphate uptake was assessed using the opossum kidney (OK) cell line, which are derived from the renal proximal tubule.
Cells were treated for 10 minutes at 37° C. with media (vehicle) or media containing a peptide ligand (1×10^−7 M); then (t=0), the cells were then rinsed three times with media and incubated in alone at 37° C. for varying times. At each time point, ^32PO4 was then added to the media, and after five minutes of incubation, the cells were washed, lysed, and the lysate was counted for ^32P beta radioactivity by liquid scintillation counting.

[5] = Plasma phosphate in mice (20 nmol/kg); assay type: in vivo
Excerpt: (§2) To impair PLC signaling, we replaced alanine at position 1 of M-PTH(1-28) with tryptophan, in accordance with findings of Bisello and colleagues (J Biol Chem 277:38524-30, 2002) showing that such bulky substitutions at this position selectively impair PLC signaling.

NaPi-IIa = NaPi-IIa staining in renal PT cells of injected mice; conditions: mouse, in vivo
Excerpt: To help elucidate further the signaling mechanisms by which PTH ligands regulate renal phosphate transport, we developed a derivative of M-PTH(1-28) that is defective for PLC/PKC signaling, yet retains potent cAMP/PKA signaling activity. Such a peptide allows for study of the relative roles of the PKA and PKC signaling pathways in modulating the function and surface expression of the Pi transporters NaPi-IIa and NaPi-IIc in proximal tubule (PT) cells. The analog M-PTH(1-28) (M=Ala^1,Aib^3,Gln^10, Har^11,Trp^14,Arg^19), a potent agonist for cAMP and IP3 signaling pathways, induces, when injected into mice, prolonged hypophosphatemic and hypercalcemic effects.
as §2

NaPi-IIc = NaPi-IIc immunostaining in renal PT cells of injected mice; assay type: in vivo; conditions: interval 4 to 6 h
Excerpt: as §2

[6] = test system: LLC-PK1 cells expressing NaPi-IIc transporter and the rat PTHR; assay: 32P uptake in LLC-PK1 cells expressing NaPi-IIc transporter and rat PTHR; assay type: cell-based
Excerpt: as §2

[7] = target: T2, PTHR lacking the extracellular N-terminal (N) domain (delNT) (Homo sapiens, UniProt Q03431); assay: cAMP activity in cells expressing PTHR lacking the N domain (delNT); assay type: cell-based
T2 construct: expressed in transfected cells
T2 sequence (Q03431 with tags, fused parts or gaps limits assumed): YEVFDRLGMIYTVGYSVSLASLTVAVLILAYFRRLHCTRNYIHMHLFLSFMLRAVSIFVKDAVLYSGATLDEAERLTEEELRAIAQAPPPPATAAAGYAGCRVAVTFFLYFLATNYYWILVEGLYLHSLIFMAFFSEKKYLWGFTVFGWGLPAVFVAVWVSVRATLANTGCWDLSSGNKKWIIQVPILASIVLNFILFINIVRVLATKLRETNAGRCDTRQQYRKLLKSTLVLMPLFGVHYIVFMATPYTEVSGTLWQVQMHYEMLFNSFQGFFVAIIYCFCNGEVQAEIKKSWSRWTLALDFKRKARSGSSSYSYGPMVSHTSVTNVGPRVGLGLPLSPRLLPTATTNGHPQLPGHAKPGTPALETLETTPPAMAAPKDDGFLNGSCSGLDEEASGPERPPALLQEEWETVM

rat PTHR [8] = target: T3, rat PTHR (Rattus norvegicus, UniProt P25961); assay: cAMP formation in HEK-293 cells transfected with rat PTHR; assay type: cell-based; conditions: versus M-PTH(1-28)
T3 sequence (P25961 27-591): T1 sequence (P25961 27-591)
Excerpt: as §2

rat PTHR [9] = target: T3, rat PTHR; assay: IP3 formation in HEK-293 cells transfected with rat PTHR; assay type: cell-based; conditions: versus M-PTH(1-28)
Excerpt: as §2

MC3T3-E1 cells = assay: Prolonged cAMP response after ligand wash-out in MC3T3-E1 cells; assay type: cell-based
Excerpt: as §2

Compound: CC[C@H](C)[C@H](NC(=O)[C@H](CCC(=O)O)NC(=O)C(C)(C)NC(=O)[C@@H](NC(=O)[C@H](C)N)C(C)C)C(=O)N[C@@H](CCC(N)=O)C(=O)N[C@@H](CC(C)C)C(=O)N[C@@H](CCSC)C(=O)N[C@@H](Cc1c[nH]cn1)C(=O)N[C@@H](CCC(N)=O)C(=O)N[C@@H](CCCCNC(=N)N)C(=O)N[C@@H](C)C(=O)N[C@@H](CCCCN)C(=O)N[C@@H](Cc1c[nH]c2ccccc12)C(=O)N[C@@H](CC(C)C)C(=O)N[C@@H](CC(N)=O)C(=O)N[C@@H](CO)C(=O)N[C@@H](CCSC)C(=O)N[C@@H](CCCNC(=N)N)C(=O)N[C@@H](CCCNC(=N)N)C(=O)N[C@H](C(=O)N[C@@H](CCC(=O)O)C(=O)N[C@@H](Cc1c[nH]c2ccccc12)C(=O)N[C@@H](CC(C)C)C(=O)N[C@@H](CCCNC(=N)N)C(=O)N[C@@H](CCCCN)C(=O)N[C@@H](CCCCN)C(=O)N[C@@H](CC(C)C)C(N)=O)C(C)C [[A^1,Aib^3,M]-PTH(1-28), [Ala^1,12,Aib^3,Gln^10,homoarginine^11,Trp^14,Arg^19]human(h)PTH(1-28)NH2] (H-AV[Aib]EIQLMHQ[hArg]AKWLNSMRRVEWLRKKL-NH2; N-terminus assumed)
- maximum cAMP response (ligand with IBMX 10 minutes, no wash-out) [1]: 71±1 pmole/well
- dose producing comparable increase in plasma cAMP [2]: 50 nmol/kg
- duration of serum calcium and plasma phosphate responses, in words [3]: more prolonged than those to hPTH(1-34)NH2
- duration of phosphate uptake inhibition, in words [4]: dramatically prolonged inhibitory effect on phosphate uptake
- time of maximal suppression of plasma phosphate [5]: 2 h
- time of recovery of plasma phosphate to vehicle control levels [5]: 6 h
- apical and cytoplasmic NaPi-IIa staining, in words (NaPi-IIa): prolonged reductions in NaPi-IIa immunoreactivity; also recorded: remained reduced for at least six hours
- NaPi-IIc immunostaining, in words (NaPi-IIc): reduced
- ^32P uptake, in words [6]: inhibited

Compound: PTHrP(1-14) (AVSEHQLLHDKGKS)
- cAMP potency on delNT compared with PTH counterparts, in words [7]: much less potent for cAMP activity

Compound: Trp^1-M-PTH(1-28)
- potency for stimulating cAMP formation, in words (rat PTHR [8]): about as potent as M-PTH(1-28)
- fold less potent than parent peptide for stimulating IP3 formation (rat PTHR [9]): at least 100 fold
- cAMP response after ligand wash-out, in words (MC3T3-E1 cells): retained the capacity to produce a prolonged cAMP response
- time of maximal suppression of plasma phosphate [5]: 2 h
- time of recovery of plasma phosphate to vehicle control levels [5]: 6 h
- apical and cytoplasmic NaPi-IIa staining, in words (NaPi-IIa): remained reduced for at least six hours
- NaPi-IIc immunostaining, in words (NaPi-IIc): unchanged
- ^32P uptake, in words [6]: failed to inhibit
